In US10463592B2, “Peptide with anti-aging effect and use thereof” (Osaka University, priority 2013, dated 2019):
Where no end group is shown, it is not given here.

Columns and labels:
CD86 expression in THP-1 = test: h-CLAT assay, CD86 expression; type: cell-based, human; conditions: positive if RFI of CD86>150, FIG. 2
Experimental: Into a 75-cm^2 flask was placed 50 mL of a suspension of the human monocytic cell line THP-1 (JCRB accession number: JCRB0112) at a density of 2.0×10^5 cells/mL in RPMI 1640 culture medium containing 10% FBS and 0.05 mM mercaptoethanol. The cells were precultured for 48 hours. The precultured THP-1 cells were harvested by centrifugation and suspended at 2.0×10^6 cells/mL in RPMI 1640 culture medium containing 10% FBS and 0.05 mM mercaptoethanol. To each well of 24-well plates, 500 μL of the cell suspension was seeded. To each well containing the seeded cell suspension, 500 μL of each peptide in the same culture medium was added. After 24 hours of incubation, the cells were harvested by centrifugation and were washed twice with PBS containing 0.1% BSA (FACS buffer). The cells were then suspended in 600 μL of FACS buffer containing a 0.01% human γ-globulin solution (Sigma, G2388) and incubated at 4° C. for 10 minutes to block the Fc receptor. The cell suspension was then split into three 180-μL aliquots for conducting an antibody reaction. The aliquots were each transferred to a 1.5-mL tube and centrifuged to give a pellet. To each pellet was added 50 μL of each of solutions of three different FITC-conjugated antibodies, i.e., FITC-conjugated CD86 antibody (Pharmingen; Cat #555657), FITC-conjugated CD54 antibody (Dako; Cat #F7143) and FITC-conjugated isotype control (Mouse IgG) antibody (Dako; Cat #X0927), that were adjusted to an appropriate concentration with FACS buffer. The mixture was incubated at 4° C. for 30 minutes. After the incubation, the cells were harvested by centrifugation and washed twice with FACS buffer. The cells were harvested by centrifugation and suspended in 200 μL of FACS buffer containing 0.625 μg/mL propidium iodide. Then, 1×10^4 living cells were analyzed by flow cytometry to determine the expression levels of the cell surface antigens. No gating on forward or side scatter was used. The relative fluorescence intensities (RFIs) were calculated from the mean of the measured fluorescence intensities (MFIs) in accordance with the following equation.
(§1) From the survival rates and the RFI values of CD86 and CD54 expressions, the sensitization potentials were evaluated. The sensitization potentials of the test samples were determined to be positive when the RFIs of the antigen expressions in the sample treatment groups satisfy the following equations: the RFI of CD86>150, and the RFI of CD54>200. (2) Results

CD54 expression in THP-1 = test: h-CLAT assay, CD54 expression; type: cell-based, human; conditions: positive if RFI of CD54>200; FIG. 3
Experimental: (§2) Into a 75-cm^2 flask was placed 50 mL of a suspension of the human monocytic cell line THP-1 (JCRB accession number: JCRB0112) at a density of 2.0×10^5 cells/mL in RPMI 1640 culture medium containing 10% FBS and 0.05 mM mercaptoethanol. The cells were precultured for 48 hours. The precultured THP-1 cells were harvested by centrifugation and suspended at 2.0×10^6 cells/mL in RPMI 1640 culture medium containing 10% FBS and 0.05 mM mercaptoethanol. To each well of 24-well plates, 500 μL of the cell suspension was seeded. To each well containing the seeded cell suspension, 500 μL of each peptide in the same culture medium was added. […] Then, 1×10^4 living cells were analyzed by flow cytometry to determine the expression levels of the cell surface antigens. […] The relative fluorescence intensities (RFIs) were calculated from the mean of the measured fluorescence intensities (MFIs) in accordance with the following equation.
as §1, with “(2) Results” left out

[1] = system: human monocytic cell line THP-1; test: Sensitization test by the h-CLAT assay (overall evaluation); type: cell-based; conditions: even at high concentrations; positive if RFI of CD86>150 and RFI of CD54>200; 24 hours
Experimental: as §2
as §1, with “(2) Results” left out

Row | Molecule | sensitization potential for CD86 expression (CD86 expression in THP-1; at high concentrations) | sensitization potential for CD86 expression (CD86 expression in THP-1; at low concentrations) | sensitization potential for CD54 expression (CD54 expression in THP-1) | sensitization potential [1]
1 | CC[C@H](C)[C@H](NC(=O)[C@H](CCCCN)NC(=O)[C@H](CCC(=O)O)NC(=O)[C@H](CCCCN)NC(=O)[C@H](CO)NC(=O)[C@H](CCCCN)NC(=O)[C@H](CCCNC(=N)N)NC(=O)[C@H](Cc1ccccc1)NC(=O)[C@H](Cc1ccccc1)NC(=O)[C@H](CC(=O)O)NC(=O)CNC(=O)[C@H](CC(C)C)NC(=O)[C@@H](N)CC(C)C)C(=O)NCC(=O)N[C@@H](CCCCN)C(=O)N[C@@H](CCC(=O)O)C(=O)N[C@@H](Cc1ccccc1)C(=O)N[C@@H](CCCCN)C(=O)N[C@@H](CCCNC(=N)N)C(=O)N[C@H](C(=O)N[C@H](C(=O)N[C@@H](CCC(N)=O)C(=O)N[C@@H](CCCNC(=N)N)C(=O)N[C@H](C(=O)N[C@@H](CCCCN)C(=O)N[C@@H](CC(=O)O)C(=O)N[C@@H](Cc1ccccc1)C(=O)N[C@@H](CC(C)C)C(=O)N[C@@H](CCCNC(=N)N)C(=O)N[C@@H](CC(N)=O)C(=O)N[C@@H](CC(C)C)C(=O)N[C@H](C(=O)N1CCC[C@H]1C(=O)N[C@@H](CCCNC(=N)N)C(=O)N[C@H](C(=O)N[C@@H](CCC(=O)O)C(=O)N[C@@H](CO)C(=O)O)[C@@H](C)O)C(C)C)[C@@H](C)CC)C(C)C)[C@@H](C)CC [LL-37] | positive | negative | negative | 
2 | Ac-HRLKR-NH2 [OSK-9, HRLKR] |  |  |  | negative
3 | Ac-IFLHR-NH2 [OSK-6, IFLHR] |  |  |  | negative
4 | GIGKFLHSAKKFGKAFVGEIMNS [magainin] | positive | negative | negative | 
